Experimental data: ChEMBL document CHEMBL3763031, “Design, synthesis and biological evaluation of monobactams as antibacterial agents against gram-negative bacteria” (2016)
Values after ≈ are worked out from the molar mass of the structure shown.

What was measured:
[1] = system: Escherichia coli; test: Antibacterial activity against acrAB and acrEF knock-out Escherichia coli BL21 by microbroth dilution assay; assay type: functional
[2] = system: Escherichia coli; test: Antibacterial activity against Escherichia coli BL21 by microbroth dilution assay; assay type: functional
[3] = system: Salmonella typhi; test: Antibacterial activity against beta-lactamase producing Salmonella typhi H901 after 18 hrs by agar dilution assay; assay type: functional, Salmonella enterica subsp. enterica serovar Typhi; details: Salmonella enterica, H901, 18 h
[4] = system: Proteus mirabilis; test: Antibacterial activity against beta-lactamase producing Proteus mirabilis 09-1 after 18 hrs by agar dilution assay; assay type: functional; details: 09-1, 18 h
[5] = system: Proteus vulgaris; test: Antibacterial activity against beta-lactamase producing Proteus vulgaris 29905 after 18 hrs by agar dilution assay; assay type: functional; details: Proteus vulgaris, 29905, 18 h
[6] = system: Providencia rettgeri; test: Antibacterial activity against Providencia rettgeri 31052 after 18 hrs by agar dilution assay; assay type: functional; details: Providencia rettgeri, 31052, 18 h
[7] = system: Morganella morganii; test: Antibacterial activity against beta-lactamase producing Morganella morganii 25830 after 18 hrs by agar dilution assay; assay type: functional; details: Morganella morganii, 25830, 18 h
[8] = system: Serratia marcescens; test: Antibacterial activity against beta-lactamase producing Serratia marcescens 41002 after 18 hrs by agar dilution assay; assay type: functional; details: Serratia marcescens, 41002, 18 h
[9] = system: Klebsiella aerogenes; test: Antibacterial activity against beta-lactamase producing Enterobacter aerogenes 45102 after 18 hrs by agar dilution assay; assay type: functional; details: Klebsiella aerogenes, 45102, 18 h
[10] = system: Enterobacter cloacae; test: Antibacterial activity against beta-lactamase producing Enterobacter cloacae 45301 after 18 hrs by agar dilution assay; assay type: functional; details: Enterobacter cloacae, 45301, 18 h
[11] = system: Klebsiella pneumoniae; test: Antibacterial activity against ESBL negative Klebsiella pneumoniae 7 after 18 hrs by agar dilution assay; assay type: functional; details: Klebsiella pneumoniae, 7, 18 h
[12] = system: Klebsiella pneumoniae; test: Antibacterial activity against NDM-1 positive Klebsiella pneumoniae BAA-2146 after 18 hrs by agar dilution assay; assay type: functional; details: BAA-2146, 18 h
[13] = system: Klebsiella pneumoniae; test: Antibacterial activity against ESBL negative Klebsiella pneumoniae 09-8 after 18 hrs by agar dilution assay; assay type: functional; details: 09-8, 18 h
[14] = system: Pseudomonas aeruginosa; test: Antibacterial activity against BL positive Pseudomonas aeruginosa 09-14 after 18 hrs by agar dilution assay; assay type: functional; details: 09-14, 18 h
[15] = system: Pseudomonas aeruginosa; test: Antibacterial activity against BL positive Pseudomonas aeruginosa PAO1 after 18 hrs by agar dilution assay; assay type: functional; details: PAO1, 18 h
[16] = system: Pseudomonas aeruginosa; test: Antibacterial activity against BL positive Pseudomonas aeruginosa 27853 after 18 hrs by agar dilution assay; assay type: functional; details: Pseudomonas aeruginosa, 27853, 18 h
[17] = system: Klebsiella pneumoniae; test: Antibacterial activity against ESBL positive Klebsiella pneumoniae 09-25 after 18 hrs by agar dilution assay; assay type: functional; details: 09-25, 18 h
[18] = system: Klebsiella pneumoniae; test: Antibacterial activity against ESBL positive Klebsiella pneumoniae 700603 after 18 hrs by agar dilution assay; assay type: functional; details: Klebsiella pneumoniae, 700603, 18 h
[19] = system: Escherichia coli; test: Antibacterial activity against ESBL negative Escherichia coli 09-20 after 18 hrs by agar dilution assay; assay type: functional; details: 09-20, 18 h
[20] = system: Escherichia coli; test: Antibacterial activity against ESBL positive Escherichia coli 09-1 after 18 hrs by agar dilution assay; assay type: functional; details: 09-1, 18 h
[21] = system: Escherichia coli; test: Antibacterial activity against ESBL negative Escherichia coli 1515 after 18 hrs by agar dilution assay; assay type: functional; details: Escherichia coli, 1515, 18 h
[22] = system: Escherichia coli; test: Antibacterial activity against ESBL negative Escherichia coli 25922 after 18 hrs by agar dilution assay; assay type: functional; details: Escherichia coli, 25922, 18 h
[23] = system: Citrobacter freundii; test: Antibacterial activity against beta-lactamase producing Citrobacter freundii 43864 after 18 hrs by agar dilution assay; assay type: functional; details: Citrobacter freundii, 43864, 18 h

Structure (SMILES) | MIC [3] [µg/mL] | MIC [4] [µg/mL] | MIC [5] [µg/mL] | MIC [6] [µg/mL] | MIC [7] [µg/mL] | MIC [8] [µg/mL] | MIC [9] [µg/mL] | MIC [11] [µg/mL] | MIC [12] [µg/mL] | MIC [13] [µg/mL] | MIC [14] [µg/mL] | MIC [15] [µg/mL] | MIC [16] [µg/mL] | MIC [17] [µg/mL] | MIC [18] [µg/mL] | MIC [19] [µg/mL] | MIC [20] [µg/mL] | MIC [21] [µg/mL] | MIC [22] [µg/mL] | MIC [23] [µg/mL] | further results
CN(C)[C@@H]1C(O)=C(C(N)=O)C(=O)[C@@]2(O)C(O)=C3C(=O)c4c(O)cccc4[C@@](C)(O)[C@H]3C[C@@H]12 [TETRACYCLINE] |  |  |  |  |  |  |  |  |  |  |  |  |  |  |  |  |  |  |  |  | MIC [1]: 0.25 µg/mL (≈ 0.563 µM); MIC [2]: 0.5 µg/mL (≈ 1.13 µM)
CCN(CC)CC.Cc1ccc(O)c(/C=N/NC(=O)c2ccc(CO/N=C(\C(=O)N[C@@H]3C(=O)N(S(=O)(=O)O)[C@H]3C)c3csc(N)n3)cc2)c1 (relative stereo) | 8 | 2 | 1 | 0.06 | 0.12 | 8 | 8 | 2 | > 64 | 32 | 32 | 32 | 32 | > 64 | 64 | 64 | 64 | 0.25 | 8 | 8 | MIC [10]: 4 µg/mL
CC1(C)[C@H](NC(=O)/C(=N\OCc2cn(CC(=O)O)nn2)c2csc(N)n2)C(=O)N1S(=O)(=O)O | > 64 | 2 (≈ 3.98 µM) | 0.125 (≈ 0.249 µM) | ≤ 0.03 | > 64 | 2 (≈ 3.98 µM) | 4 (≈ 7.96 µM) | 1 (≈ 1.99 µM) | > 64 | 1 (≈ 1.99 µM) | > 64 | > 64 | > 64 | 32 (≈ 63.7 µM) | > 64 | 8 (≈ 15.9 µM) | 2 (≈ 3.98 µM) | 32 (≈ 63.7 µM) | 2 (≈ 3.98 µM) | 2 (≈ 3.98 µM) | MIC [10]: 1 µg/mL (≈ 1.99 µM)
C[C@H]1[C@H](NC(=O)/C(=N\OC(C)(C)C(=O)O)c2csc(N)n2)C(=O)N1S(=O)(=O)O [AZTREONAM] | ≤ 0.03 | ≤ 0.03 | ≤ 0.03 | ≤ 0.03 | 0.125 (≈ 0.287 µM) | 0.125 (≈ 0.287 µM) | ≤ 0.03 | ≤ 0.03 | 256 (≈ 588 µM) | 16 (≈ 36.7 µM) | 4 (≈ 9.19 µM) | 0.5 (≈ 1.15 µM) | 2 (≈ 4.59 µM) | 32 (≈ 73.5 µM) | 32 (≈ 73.5 µM) | > 256 | 8 (≈ 18.4 µM) | 0.125 (≈ 0.287 µM) | 0.125 (≈ 0.287 µM) | 0.125 (≈ 0.287 µM) | 
CC1(C)[C@H](NC(=O)/C(=N\OCc2cn(CC3CC3)nn2)c2csc(N)n2)C(=O)N1S(=O)(=O)O | 64 (≈ 128 µM) | > 64 | 1 (≈ 2.01 µM) | ≤ 0.03 | > 64 | 32 (≈ 64.2 µM) | 32 (≈ 64.2 µM) | 16 (≈ 32.1 µM) | 64 (≈ 128 µM) | 16 (≈ 32.1 µM) | > 64 | > 64 | > 64 | 32 (≈ 64.2 µM) | > 64 | 16 (≈ 32.1 µM) | 16 (≈ 32.1 µM) | 16 (≈ 32.1 µM) | 16 (≈ 32.1 µM) | 8 (≈ 16 µM) | MIC [10]: 8 µg/mL (≈ 16 µM)
CC1(C)[C@H](NC(=O)/C(=N\OCc2ccccc2)c2csc(N)n2)C(=O)N1S(=O)(=O)O | > 64 | > 64 | > 64 | > 64 | > 64 | > 64 | > 64 | > 64 | > 64 | > 64 | > 64 | > 64 | > 64 | > 64 | > 64 | > 64 | > 64 | > 64 | > 64 | > 64 | MIC [10]: > 64 µg/mL
CCN(CC)CC.C[C@H]1[C@H](NC(=O)/C(=N\OCc2ccc(C(=O)N/N=C/c3ccc4ccccc4c3O)cc2)c2csc(N)n2)C(=O)N1S(=O)(=O)O | 8 | 1 | 1 | ≤ 0.03 | 0.06 | 8 | 8 | 2 | > 64 | 32 | 16 | 16 | 16 | > 64 | > 64 | 64 | 64 | 0.25 | 4 | 8 | MIC [10]: 4 µg/mL
Cn1cc(CO/N=C(\C(=O)N[C@@H]2C(=O)N(S(=O)(=O)O)C2(C)C)c2csc(N)n2)nn1 | > 64 | 2 (≈ 4.36 µM) | 0.125 (≈ 0.273 µM) | 0.06 (≈ 0.131 µM) | 0.125 (≈ 0.273 µM) | 8 (≈ 17.4 µM) | 8 (≈ 17.4 µM) | 2 (≈ 4.36 µM) | 64 (≈ 140 µM) | 8 (≈ 17.4 µM) | > 64 | > 64 | > 64 | 8 (≈ 17.4 µM) | > 64 | 8 (≈ 17.4 µM) | 2 (≈ 4.36 µM) | 4 (≈ 8.72 µM) | 4 (≈ 8.72 µM) | 4 (≈ 8.72 µM) | MIC [10]: 2 µg/mL (≈ 4.36 µM)
CC1(C)[C@H](NC(=O)/C(=N\OCc2ccc(C(=O)O)cc2)c2csc(N)n2)C(=O)N1S(=O)(=O)O | 32 (≈ 64.3 µM) | 8 (≈ 16.1 µM) | 0.06 (≈ 0.121 µM) | ≤ 0.03 | > 64 | 4 (≈ 8.04 µM) | 8 (≈ 16.1 µM) | 2 (≈ 4.02 µM) | 32 (≈ 64.3 µM) | 2 (≈ 4.02 µM) | > 64 | > 64 | > 64 | 8 (≈ 16.1 µM) | > 64 | 2 (≈ 4.02 µM) | 4 (≈ 8.04 µM) | 8 (≈ 16.1 µM) | 4 (≈ 8.04 µM) | 2 (≈ 4.02 µM) | MIC [10]: 2 µg/mL (≈ 4.02 µM)
C[C@H]1[C@H](NC(=O)/C(=N\OCc2cn(C)nn2)c2csc(N)n2)C(=O)N1S(=O)(=O)O (relative stereo) | > 128 | 1 (≈ 2.25 µM) | 0.5 (≈ 1.12 µM) | 0.125 (≈ 0.281 µM) | 0.5 (≈ 1.12 µM) | 2 (≈ 4.5 µM) | 2 (≈ 4.5 µM) | 1 (≈ 2.25 µM) | > 128 | > 128 | > 128 | > 128 | > 128 | > 128 | > 128 | > 128 | 4 (≈ 9 µM) | 4 (≈ 9 µM) | 4 (≈ 9 µM) | 4 (≈ 9 µM) | MIC [10]: 1 µg/mL (≈ 2.25 µM)
